Biological target: T1, glucosylceramide synthase (Homo sapiens, UniProt Q16739)
T1 construct: microsomes were prepared from human melanoma A375 cells by sonication and centrifugation; endogenous in cells; host or cells: human melanoma A375 cells (microsomes)
T1 sequence (Q16739 1-394): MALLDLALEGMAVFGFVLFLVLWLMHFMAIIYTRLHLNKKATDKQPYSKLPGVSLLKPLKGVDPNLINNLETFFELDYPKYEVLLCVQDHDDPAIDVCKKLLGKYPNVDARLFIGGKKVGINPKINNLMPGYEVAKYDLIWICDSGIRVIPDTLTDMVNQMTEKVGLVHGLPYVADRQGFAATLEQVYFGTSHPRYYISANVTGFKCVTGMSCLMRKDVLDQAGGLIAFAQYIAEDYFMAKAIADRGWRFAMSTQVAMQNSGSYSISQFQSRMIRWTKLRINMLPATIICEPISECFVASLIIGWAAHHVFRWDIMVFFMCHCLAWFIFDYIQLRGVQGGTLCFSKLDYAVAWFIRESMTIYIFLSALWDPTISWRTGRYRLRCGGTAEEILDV
Test: Glucosylceramide synthase inhibition in microsomes from human melanoma A375 cells
Assay type: biochemical
Description: An alternative assay for activity measured inhibition of glucosylceramide synthase in human cell derived microsomes. In this assay, microsomes were prepared from human melanoma A375 cells by sonication and centrifugation. […] Following the incubation, fluorescently labeled glucosylceramide and unreacted ceramide were separated and quantitated by reverse-phase HPLC and fluorescence detection.

With `CCCCCCCC(=O)N[C@H](CN1CCCC1)[C@H](O)c1ccc2c(c1)OCCO2` [Formula (I) Hemitartrate] the “differential in concentration required to inhibit glucosylceramide synthase compared to any of the other enzymes tested” value was “approximately 40,000”.
